For data set [1], the system named is P388D1 cells. Description: Hydrogen peroxide (H2O2) induced cytotoxicity suppressive action. The class given is cell-based. The following applies: H2O2 (2 mM), 4 hr, LDH activity, read-out: Cell death suppressive action IC50. How it is done:
P388D1 cells cultured to confluence in a 25 cm^2 flask were sown in 96-well plate at a density of […]. The test compound was added, and the cells were incubated for 15 min (37° C.), after which H2O2 (2 mM) was added, and the cells were incubated for 4 hr. After the completion of the incubation, the culture supernatant was recovered, and the LDH activity, which is an index of cytotoxicity, was measured using an LDH-cytotoxicity test kit (Wako Pure Chemical Industries, Ltd.).

Data set [2] addresses Recombinant human PARP (Homo sapiens, UniProt P09874). As to the kind of experiment: PARP enzyme activity inhibitory action. The following applies: for IC50: PARP inhibitory activity IC50 (nM).
Procedure: After incubation at 25° C. for 15 min., the reaction was quenched with 20% trichloroacetic acid, and the resulting acid insoluble fraction was adsorbed on a GF/B filter. The filter was washed several times with 5% trichloroacetic acid, and the radiation dose on the filter was measured by liquid scintillation counter.
The nature of data set [3]: Stability test in 0.1 mol/L aqueous citric acid solution (HPLC residual ratio). Format: physicochemical. The following applies: 5 mg in 1 ml 0.1 mol/L aqueous citric acid, room temperature. How it is done:
Each test compound (5 mg) was dissolved in 0.1 mol/L aqueous citric acid solution (1 ml), and the residual ratio of each compound was measured by HPLC under shading or no shading at room temperature one day and 8 days later. The residual ratio was calculated by comparing the area of HPLC immediately after dissolution of each compound with the area of HPLC one day or 8 days later.
column CAPCELPAK UG120 (C18)(Shiseido Co., Ltd.)
mobile phase 50 mmol/L aqueous sodium perchlorate solution (pH
detection wavelength 254 nm

For data set [4], the target named is adrenalin α1 receptor. Description: Affinity for adrenalin α1 receptor; 3H-prazosin binding. Conditions: rat brain crude synapse membrane, 25° C. 30 min. The procedure: Preparation of crude synapse membrane and binding experiment were performed according to European Journal of Pharmacology, vol. 55, page 323 (1979). Crude synapse membranes were prepared from cryopreserved rat brain tissues, and a membrane sample and 3H-prazosin were incubated in the presence of a test compound at 25° C. for 30 min. […] The amount of non-specific binding was determined in the presence of 1 μM prazosin. The 50% suppression concentration (IC50) of the test compound was calculated from nonlinear regression, and the inhibition constant (Ki value) was determined.

Where [5] appears, read: 3H-NAD, activated DNA, 25° C. 15 min, average of 2 measurements.
Setting [6] is: 3H-NAD, activated DNA, 25° C. 15 min, average of 3 measurements.

pIC50, pKi: −log10 of the molar value. Structures can show the parent of a compound that is named as a salt. Where two headings read alike, the source gives them in different places. Some results are limits rather than exact numbers.

Sequence of Recombinant human PARP (P09874 whole entry): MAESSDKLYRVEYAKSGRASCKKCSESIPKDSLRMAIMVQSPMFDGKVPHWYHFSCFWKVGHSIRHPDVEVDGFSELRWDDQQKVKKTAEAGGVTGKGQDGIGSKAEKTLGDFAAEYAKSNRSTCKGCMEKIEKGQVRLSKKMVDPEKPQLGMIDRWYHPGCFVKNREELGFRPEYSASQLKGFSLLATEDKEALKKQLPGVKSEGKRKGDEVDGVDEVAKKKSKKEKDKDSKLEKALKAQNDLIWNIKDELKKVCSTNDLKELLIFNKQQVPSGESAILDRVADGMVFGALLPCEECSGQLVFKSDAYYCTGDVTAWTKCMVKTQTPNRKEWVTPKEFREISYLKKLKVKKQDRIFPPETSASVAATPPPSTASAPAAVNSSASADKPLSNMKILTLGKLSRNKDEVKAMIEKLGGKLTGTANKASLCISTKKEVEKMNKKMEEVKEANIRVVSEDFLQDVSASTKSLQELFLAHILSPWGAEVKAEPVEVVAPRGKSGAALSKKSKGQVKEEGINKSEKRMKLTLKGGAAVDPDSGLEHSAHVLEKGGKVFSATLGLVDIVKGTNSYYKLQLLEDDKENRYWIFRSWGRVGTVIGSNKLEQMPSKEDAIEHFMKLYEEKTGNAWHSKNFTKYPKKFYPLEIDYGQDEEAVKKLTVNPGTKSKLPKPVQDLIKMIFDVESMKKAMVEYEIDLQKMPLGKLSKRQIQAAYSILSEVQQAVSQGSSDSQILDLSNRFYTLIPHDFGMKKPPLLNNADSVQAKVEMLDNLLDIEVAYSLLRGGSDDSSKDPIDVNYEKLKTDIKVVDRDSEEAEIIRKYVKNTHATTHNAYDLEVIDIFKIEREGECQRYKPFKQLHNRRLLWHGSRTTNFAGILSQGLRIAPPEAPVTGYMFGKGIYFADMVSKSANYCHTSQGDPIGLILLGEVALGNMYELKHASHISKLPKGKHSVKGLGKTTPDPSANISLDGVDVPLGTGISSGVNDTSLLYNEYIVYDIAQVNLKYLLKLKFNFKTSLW

Usually pIC50 stands for −log10 of the IC50, conventionally taken in molar units. On to `O=C1NCCc2c(OCCCCN3CCCCC3)cccc21` [DPQ, 3,4-dihydro-5-[4-(1-piperidinyl)-butoxy]-1(2H)-isoquinoline, reference compound], for which the pIC50 in data set [1] is 5.48; in data set [2] (read-out: PARP inhibitory activity IC50, 3H-NAD, activated DNA, 25° C. 15 min, average of 3 measurements), 6.00.
The term IC50 denotes the concentration at which inhibition is half-maximal. As to `Cc1cccc2c(=O)[nH]c(N3CCN(C)CC3)cc12` [Example 1, 5-methyl-3-(4-methylpiperazin-1-yl)-2H-isoquinolin-1-one], the pIC50 in data set [1] (Mus musculus) is 6.92. In addition, the IC50 was found to be 42 nM in data set [2] (setting [5]) and 38 nM in data set [2] (setting [6]).
As to `Cc1cccc2c(=O)[nH]c(N3CCC(N(C)C)CC3)cc12` [Example 12, 5-methyl-3-(4-dimethylaminopiperidin-1-yl)-2H-isoquinolin-1-one], the pIC50 in data set [1] (Mus musculus) is 6.96. Also, the IC50 in data set [2] (setting [5]) is 34 nM; in data set [2] (setting [6]) it was 37 nM.
As to `CN1CCC(c2cc3ccccc3c(=O)[nH]2)CC1` [Example 82, 3-(1-methylpiperidin-4-yl)-2H-isoquinolin-1-one ⅕ water adduct], in data set [1] (Mus musculus), the pIC50 is 6.72. Moreover, in data set [3], the “residual ratio (%) under shading 1 day later” value is recorded as “≈100%”, the “residual ratio (%) under shading 8 days later” value is on record as “≈100%”, the “residual ratio (%) without shading 1 day later” value was “≈100%” and the “residual ratio (%) without shading 8 days later” value is “≈100%”. Further, in data set [2] (setting [6]), the IC50 is 34 nM.
As for `Cc1cccc2c(=O)[nH]c(CCCN(C)C)cc12` [Example 90, 3-(3-(dimethylamino)propyl)-5-methyl-2H-isoquinolin-1-one], in data set [1] (Mus musculus), the pIC50 is 6.85. Moreover, the IC50 in data set [2] (setting [6]) was determined as 26 nM.
Turning to `CN1CCC(c2cc3c(O)cccc3c(=O)[nH]2)CC1` [Example 108, 5-hydroxy-3-(1-methylpiperidin-4-yl)-2H-isoquinolin-1-one], in data set [1] (Mus musculus), the pIC50 is 6.91. Moreover, in data set [3], the “residual ratio (%) under shading 1 day later” value was “≈100%”, the “residual ratio (%) under shading 8 days later” value is “≈100%”, the “residual ratio (%) without shading 1 day later” value is “≈100%” and the “residual ratio (%) without shading 8 days later” value was “≈100%”. For the same compound, in data set [2] (setting [6]), the IC50 was 12 nM.
For `Cc1cccc2c(=O)[nH]c(C3CCN(C)CC3)nc12` [Example 121, 2-(1-methylpiperidin-4-yl)-8-methyl-3H-quinazolin-4-one], the pIC50 in data set [1] (Mus musculus) was 6.62. Also, in data set [3], the “residual ratio (%) under shading 1 day later” value is reported as “≈100%” and the “residual ratio (%) under shading 8 days later” value is “≈100%”. In addition, in data set [2] (setting [6]), the IC50 was determined as 37 nM.
As usually defined, the pKi is −log10 of the Ki, conventionally taken in molar units. Read a high pKi as a small Ki. `CN1CCN(c2cc3ccccc3c(=O)[nH]2)C[C@H]1CO` [Example 156, (S)-3-(3-hydroxymethyl-4-methylpiperazin-1-yl)-2H-isoquinolin-1-one]: in data set [1] (Mus musculus), the pIC50 was 6.64. Moreover, in data set [4], the pKi is < 4.00. Also, in data set [2] (setting [6]), the IC50 came to 35 nM.
With `Cc1cccc2c(=O)[nH]c(C3CCN(C)CC3)cc12` [Example 178, 5-methyl-3-(1-methylpiperidin-4-yl)-2H-isoquinolin-1-one], the pIC50 in data set [1] (Mus musculus) was 7.05. Also, in data set [2] (setting [6]), the IC50 is 23 nM.
In the case of `CN1CCC(c2cc3c(N)cccc3c(=O)[nH]2)CC1` [Example 181, 5-amino-3-(1-methylpiperidin-4-yl)-2H-isoquinolin-1-one], the pIC50 in data set [1] (Mus musculus) was 6.66. Moreover, in data set [2] (setting [6]), the IC50 came to 22 nM.
The term melting point denotes the temperature, or range, at which the solid turns liquid. The compound `CN1CCC(C2Cc3c(O)cccc3C(=O)N2)CC1` (centres unmarked) [Example 184, 5-hydroxy-3-(1-methylpiperidin-4-yl)-3,4-dihydro-2H-isoquinolin-1-one] yielded a melting point of 216 to 218 °C. Moreover, the IC50 in data set [2] (setting [6]) came to 26 nM.
In the case of `CN(C)CCCc1cc2c(O)cccc2c(=O)[nH]1` [Example 186, 5-hydroxy-3-(3-dimethylaminopropyl)-2H-isoquinolin-1-one hydrochloride], in data set [1] (Mus musculus), the pIC50 was 6.89. The IC50 in data set [2] (setting [6]) was determined as 14 nM.
Consider `CN(C)CCCCc1cc2c(O)cccc2c(=O)[nH]1.Cl` [Example 188, 5-hydroxy-3-(4-dimethylaminobutyl)-2H-isoquinolin-1-one hydrochloride], for which the melting point is 231 to 233 °C. The IC50 in data set [2] (setting [6]) was 57 nM.
In the case of `O=c1[nH]c(CCN2CCCCC2)cc2c(O)cccc12` [Example 189, 5-hydroxy-3-(2-(piperidin-1-yl)ethyl)-2H-isoquinolin-1-one], in data set [1] (Mus musculus), the pIC50 is 7.07. In data set [2] (setting [6]), the IC50 amounted to 17 nM.
`CN1CC=C(c2cc3ccccc3c(=O)[nH]2)CC1` [Example 190, 3-(1-methyl-1,2,3,6-tetrahydropyridin-4-yl)-2H-isoquinolin-1-one] displayed a melting point of 222 to 223 °C. For the same compound, in data set [2] (setting [6]), the IC50 was determined as 39 nM.
For `CN1CCN(c2cc3c(F)cccc3c(=O)[nH]2)CC1CO` (centres unmarked) [Example 205, 5-fluoro-3-(3-hydroxymethyl-4-methylpiperazin-1-yl)-2H-isoquinolin-1-one], in that order: 216 to 217 °C and 54 nM.
For the compound `Cc1cccc2c(=O)[nH]c(N3CCN(C)[C@H](CO)C3)cc12` [Example 212, (S)-3-(3-hydroxymethyl-4-methylpiperazin-1-yl)-5-methyl-2H-isoquinolin-1-one], the pIC50 in data set [1] (Mus musculus) is 7.15. Further, the pKi in data set [4] is < 4.00. Further, in data set [2] (setting [6]), the IC50 came out at 23 nM.
The compound `O=c1[nH]c(CCCN2CCCC2)cc2ccccc12` [Example 213, 3-(3-(pyrrolidin-1-yl)propyl)-2H-isoquinolin-1-one] showed a melting point of 117 to 119 °C. For the same compound, in data set [2] (setting [6]), the IC50 was 57 nM.
For `CN1CCN(c2cc3c(Cl)cccc3c(=O)[nH]2)CC1CO` (centres unmarked) [Example 214, 5-chloro-3-(3-hydroxymethyl-4-methylpiperazin-1-yl)-2H-isoquinolin-1-one], in that order: 212 to 214 °C and 45 nM.
For `O=c1[nH]c(CCCN2CCCC2)cc2c(O)cccc12` [Example 217, 5-hydroxy-3-(3-(pyrrolidin-1-yl)propyl)-2H-isoquinolin-1-one], in that order: 222 to 225 °C and 28 nM.
`CN1CCN(c2cc3ccccc3c(=O)[nH]2)CC1` [Example Y-3011, reference compound]: in data set [3], the “residual ratio (%) under shading 1 day later” value is listed as 76% and the “residual ratio (%) under shading 8 days later” value was 32%. For the same compound, in data set [4], the pKi is 5.40. Besides, the IC50 in data set [2] (setting [6]) came out at 50 nM. In data set [2] (comparison drawn from Table 1), the “PARP inhibitory activity (in words)” value is reported as “most superior PARP inhibitory activity”.

Values taken from US20040176361A1, “Fused heterocyclic compound and medicinal use thereof” (priority 2001, published 2004).
